Key:
[1] = test system: HT-29; test: Growth inhibition of human HT-29 cells assessed as cell growth at 10 uM incubated for 48 hrs by sulforhodamine B assay relative to control; type: functional; conditions: HT-29, 48 h, read-out: Activity
[2] = test system: OVCAR-4; test: Growth inhibition of human OVCAR4 cells assessed as cell growth at 0.01 uM incubated for 48 hrs by sulforhodamine B assay relative to control; type: functional; conditions: OVCAR-4, 48 h, read-out: Activity
[3] = test system: M14; test: Growth inhibition of human M14 cells incubated for 48 hrs by sulforhodamine B assay; type: functional, cell-based; conditions: M14, 48 h
[4] = test system: Malme-3M; test: Growth inhibition of human MALME-3M cells assessed as cell growth at 0.1 uM incubated for 48 hrs by sulforhodamine B assay relative to control; type: functional; conditions: read-out: Activity
[5] = test system: SF-539; test: Growth inhibition of human SF539 cells assessed as cell growth at 0.1 uM incubated for 48 hrs by sulforhodamine B assay relative to control; type: functional; conditions: SF-539, 48 h, read-out: Activity
[6] = test system: CAKI-1; test: Growth inhibition of human Caki1 cells assessed as cell growth at 0.1 uM incubated for 48 hrs by sulforhodamine B assay relative to control; type: functional; conditions: CAKI-1, 48 h, read-out: Activity
[7] = test system: SK-MEL-5; test: Growth inhibition of human SK-MEL-5 cells incubated for 48 hrs by sulforhodamine B assay; type: functional, cell-based; conditions: SK-MEL-5, 48 h
[8] = test system: HCC 2998; test: Growth inhibition of human HCC2998 cells assessed as cell growth at 100 uM incubated for 48 hrs by sulforhodamine B assay relative to control; type: functional; conditions: HCC 2998, 48 h, read-out: Activity
[9] = test system: U-251; test: Growth inhibition of human U251 cells assessed as cell growth at 100 uM incubated for 48 hrs by sulforhodamine B assay relative to control; type: functional; conditions: U-251, 48 h, read-out: Activity
[10] = test system: SW-620; test: Growth inhibition of human SW620 cells incubated for 48 hrs by sulforhodamine B assay; type: functional, cell-based; conditions: SW-620, 48 h
[11] = test system: PC-3; test: Growth inhibition of human PC3 cells assessed as cell growth at 0.1 uM incubated for 48 hrs by sulforhodamine B assay relative to control; type: functional; conditions: PC-3, 48 h, read-out: Activity
[12] = test system: NCI-H460; test: Growth inhibition of human NCI-H460 cells incubated for 48 hrs by sulforhodamine B assay; type: functional, cell-based; conditions: NCI-H460, 48 h
[13] = test system: HCC 2998; test: Growth inhibition of human HCC2998 cells assessed as cell growth at 1 uM incubated for 48 hrs by sulforhodamine B assay relative to control; type: functional; conditions: HCC 2998, 48 h, read-out: Activity
[14] = test system: DU-145; test: Growth inhibition of human DU145 cells assessed as cell growth at 100 uM incubated for 48 hrs by sulforhodamine B assay relative to control; type: functional; conditions: DU-145, 48 h, read-out: Activity
[15] = test system: NCI-H23; test: Growth inhibition of human NCI-H23 cells incubated for 48 hrs by sulforhodamine B assay; type: functional, cell-based; conditions: NCI-H23, 48 h
[16] = test system: NCI-H322M; test: Growth inhibition of human NCI-H322M cells assessed as cell growth at 100 uM incubated for 48 hrs by sulforhodamine B assay relative to control; type: functional; conditions: read-out: Activity
[17] = test system: SK-MEL-28; test: Growth inhibition of human SK-MEL-28 cells assessed as cell growth at 0.01 uM incubated for 48 hrs by sulforhodamine B assay relative to control; type: functional; conditions: SK-MEL-28, 48 h, read-out: Activity
[18] = test system: T47D; test: Growth inhibition of human T47D cells assessed as cell growth at 1 uM incubated for 48 hrs by sulforhodamine B assay relative to control; type: functional; conditions: read-out: Activity
[19] = test system: COLO 205; test: Growth inhibition of human COLO205 cells assessed as cell growth at 0.1 uM incubated for 48 hrs by sulforhodamine B assay relative to control; type: functional; conditions: COLO 205, 48 h, read-out: Activity
[20] = test system: SF-539; test: Growth inhibition of human SF539 cells assessed as cell growth at 0.01 uM incubated for 48 hrs by sulforhodamine B assay relative to control; type: functional; conditions: SF-539, 48 h, read-out: Activity
[21] = test system: MDA-MB-231; test: Growth inhibition of human MDA-MB-231 cells assessed as cell growth at 100 uM incubated for 48 hrs by sulforhodamine B assay relative to control; type: functional; conditions: MDA-MB-231, 48 h, read-out: Activity
[22] = test system: OVCAR-5; test: Growth inhibition of human OVCAR5 cells assessed as cell growth at 0.1 uM incubated for 48 hrs by sulforhodamine B assay relative to control; type: functional; conditions: OVCAR-5, 48 h, read-out: Activity
[23] = test system: UACC-257; test: Growth inhibition of human UACC257 cells assessed as cell growth at 0.1 uM incubated for 48 hrs by sulforhodamine B assay relative to control; type: functional; conditions: UACC-257, 48 h, read-out: Activity
[24] = test system: NCI-H522; test: Growth inhibition of human NCI-H522 cells assessed as cell growth at 0.1 uM incubated for 48 hrs by sulforhodamine B assay relative to control; type: functional; conditions: NCI-H522, 48 h, read-out: Activity
[25] = test system: HT-29; test: Growth inhibition of human HT-29 cells assessed as cell growth at 0.1 uM incubated for 48 hrs by sulforhodamine B assay relative to control; type: functional; conditions: HT-29, 48 h, read-out: Activity
[26] = test system: A549; test: Growth inhibition of human A549/ATCC cells assessed as cell growth at 1 uM incubated for 48 hrs by sulforhodamine B assay relative to control; type: functional; conditions: A549, 48 h, read-out: Activity
[27] = test system: CCRF-CEM; test: Growth inhibition of human CCRF-CEM cells incubated for 48 hrs by sulforhodamine B assay; type: functional, cell-based
[28] = test system: HOP-62; test: Growth inhibition of human HOP62 cells incubated for 48 hrs by sulforhodamine B assay; type: functional, cell-based; conditions: HOP-62, 48 h
[29] = test system: OVCAR-4; test: Growth inhibition of human OVCAR4 cells assessed as cell growth at 0.1 uM incubated for 48 hrs by sulforhodamine B assay relative to control; type: functional; conditions: OVCAR-4, 48 h, read-out: Activity
[30] = read-out: LC50 (the source's name)
[31] = read-out: pLC50 (the source's name) (converted)

## O=C(Nc1cccc(-n2cc(-c3ccncc3)c(-c3cc(O)cc(Cl)c3)n2)c1)c1cc(C(F)(F)F)cc(C(F)(F)F)c1
[1]
  growth at 10 µM: 19.7%
[2]
  growth at 0.01 µM: 96%
[3]; read-out: GI50
  GI50: 3.01 µM
[3]; [30]
  CC50: > 100 µM
[3]; read-out: TGI
  TGI: > 100 µM
[3]; read-out: pGI50 (converted)
  GI50: 3.02 µM
[3]; [31]
  CC50: > 100 µM
[3]; read-out: pTGI (converted)
  TGI: > 100 µM
[4]
  growth at 0.1 µM: 52%
[5]
  growth at 0.1 µM: 91%
[6]
  growth at 0.1 µM: 98%
[7]; read-out: GI50
  GI50: 2.51 µM
[7]; [30]
  CC50: > 100 µM
[7]; read-out: TGI
  TGI: 86.7 µM
[7]; read-out: pGI50 (converted)
  GI50: 2.63 µM
[7]; [31]
  CC50: > 100 µM
[7]; read-out: pTGI (converted)
  TGI: 8.91 µM
[8]
  growth at 100 µM: -34%
[9]
  growth at 100 µM: -28%
[10]; read-out: GI50
  GI50: 4.48 µM
[10]; read-out: LC50
  LC50: > 100 µM
[10]; read-out: TGI
  TGI: > 100 µM
[10]; read-out: pGI50 (converted)
  GI50: 4.47 µM
[10]; read-out: pLC50 (converted)
  LC50: > 100 µM
[10]; read-out: pTGI (converted)
  TGI: > 100 µM
[11]
  growth at 0.1 µM: 93%
[12]; read-out: GI50
  GI50: 3.04 µM
[12]; [30]
  CC50: > 100 µM
[12]; read-out: TGI
  TGI: > 100 µM
[12]; read-out: pGI50 (converted)
  GI50: 3.02 µM
[12]; [31]
  CC50: > 100 µM
[12]; read-out: pTGI (converted)
  TGI: > 100 µM
[13]
  growth at 1 µM: 96%
[14]
  growth at 100 µM: 23%
[15]; read-out: GI50
  GI50: 4.18 µM
[15]; read-out: LC50
  LC50: > 100 µM
[15]; read-out: TGI
  TGI: 45.5 µM
[15]; read-out: pGI50 (converted)
  GI50: 4.17 µM
[15]; read-out: pLC50 (converted)
  LC50: > 100 µM
[15]; read-out: pTGI (converted)
  TGI: 46.8 µM
[16]
  growth at 100 µM: 13%
[17]
  growth at 0.01 µM: 99%
[18]
  growth at 1 µM: 57%
[19]
  growth at 0.1 µM: 102%
[20]
  growth at 0.01 µM: 98%
[21]
  growth at 100 µM: -84%
[22]
  growth at 0.1 µM: 54%
[23]
  growth at 0.1 µM: 98%
[24]
  growth at 0.1 µM: 30%
[25]
  growth at 0.1 µM: 91%
[26]
  growth at 1 µM: 74%
[27]; read-out: GI50
  GI50: 2.58 µM
[27]; [30]
  CC50: > 100 µM
[27]; read-out: TGI
  TGI: > 100 µM
[27]; read-out: pGI50 (converted)
  GI50: 2.69 µM
[27]; [31]
  CC50: > 100 µM
[27]; read-out: pTGI (converted)
  TGI: > 100 µM
[28]; read-out: GI50
  GI50: 9.52 µM
[28]; [30]
  CC50: > 100 µM
[28]; read-out: TGI
  TGI: > 100 µM
[28]; read-out: pGI50 (converted)
  GI50: 9.77 µM
[28]; [31]
  CC50: > 100 µM
[28]; read-out: pTGI (converted)
  TGI: > 100 µM
[29]
  growth at 0.1 µM: 104%

From ChEMBL document CHEMBL4308841, “Synthesis, in vitro antiproliferative activity, and kinase inhibitory effects of pyrazole-containing diarylureas and diarylamides” (Eur J Med Chem, 2018)
